Experimental data published in US20230271964A1, “5-AMINO-8-(4-PYRIDYL)-[1,2,4]TRIAZOLO[4,3-C]PYRIMIDIN-3-ONE COMPOUNDS FOR USE AGAINST CANCER” (ASTRAZENECA AB, priority 2020, published 2023).

How the values were obtained:
[1] = biological target: human adenosine A1 receptor (Homo sapiens (Human), UniProt P30542); experiment: Adenosine receptor inhibition binding assay, [3H]DPCPX, A1 receptor membranes; conditions: 1 nM [3H]DPCPX, 25° C., 1 h; Ki from IC50 by Cheng-Prusoff
Experimental: (§1) Inhibition binding assays were performed using 0.2 µg of membranes prepared from HEK293 cells infected with BacMam human adenosine A2A receptor or 1.4 µg of membranes prepared from HEK293 cells infected with BacMam human adenosine A1 receptor. Membranes were incubated in 50 mM Tris-HCl (HEK293-hA2A; pH 7.4) or 50 mM Tris-HCl, 100 mM NaCl, 10 mM MgCl2 (CHO-hA1; pH 7.4) in the presence of varying concentrations of test compound and 1 nM [^3H]ZM241385 (HEK293-hA2A) or [^3H]DPCPX (CHO-hA1) at 25° C. for 1 h. The assay was then terminated by rapid filtration onto GF/B grade Unifilter plates using a TomTec cell harvester, followed by 5 × 0.5 ml washes with ddH2O. Nonspecific binding was defined in the presence of 1 µM CGS 15943 (HEK293-hA2A) or 1 µM DPCPX (CHO-hA1). Bound radioactivity was determined by liquid scintillation counting and inhibition curves were analysed using a four-parameter logistic equation. IC50 values were converted to Ki values with the Cheng-Prusoff equation using a KD value derived from saturation binding studies.

[2] = biological target: human adenosine A2A receptor (Homo sapiens (Human), UniProt P29274); experiment: Adenosine receptor inhibition binding assay, [3H]ZM241385, HEK293 A2A receptor membranes; conditions: 1 nM [3H]ZM241385, HEK293-hA2A membranes, 25° C., 1 h; Ki from IC50 by Cheng-Prusoff
Experimental: as §1

human adenosine A2A receptor, sequence (P29274 whole entry): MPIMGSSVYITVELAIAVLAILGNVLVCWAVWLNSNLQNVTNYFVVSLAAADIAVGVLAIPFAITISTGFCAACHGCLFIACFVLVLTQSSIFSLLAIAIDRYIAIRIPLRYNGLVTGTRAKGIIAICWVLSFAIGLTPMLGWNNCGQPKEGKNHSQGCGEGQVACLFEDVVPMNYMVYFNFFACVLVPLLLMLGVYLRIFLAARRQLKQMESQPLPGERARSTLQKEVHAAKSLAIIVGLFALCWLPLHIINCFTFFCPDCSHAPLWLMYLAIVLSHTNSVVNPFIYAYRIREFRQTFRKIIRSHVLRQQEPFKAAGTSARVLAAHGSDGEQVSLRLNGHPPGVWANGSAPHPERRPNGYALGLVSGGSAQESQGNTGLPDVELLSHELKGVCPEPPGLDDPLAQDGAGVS
human adenosine A1 receptor, sequence (P30542 whole entry): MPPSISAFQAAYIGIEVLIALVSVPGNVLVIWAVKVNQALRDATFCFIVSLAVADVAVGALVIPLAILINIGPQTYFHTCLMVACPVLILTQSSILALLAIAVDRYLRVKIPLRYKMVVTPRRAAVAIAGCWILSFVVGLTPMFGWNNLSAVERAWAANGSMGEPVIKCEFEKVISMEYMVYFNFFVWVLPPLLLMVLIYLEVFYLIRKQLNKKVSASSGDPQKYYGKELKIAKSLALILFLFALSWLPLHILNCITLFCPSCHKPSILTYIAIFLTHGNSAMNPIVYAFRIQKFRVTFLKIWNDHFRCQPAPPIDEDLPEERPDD

Row | SMILES | A1 pKi [1] | A2A pKi [2]
1 | Cc1cc(-c2c(-c3ccccc3)nc(N)n3c(=O)n(CCn4cccn4)nc23)cc(C)n1 [Example 1-1, 5-amino-8-(2,6-dimethyl-4-pyridyl)-7-phenyl-2-(2-pyrazol-1-ylethyl)-[1,2,4]triazolo[4,3-c]pyrimidin-3-one] | 6.2 | 7.5
2 | Cc1cc(-c2c(-c3ccccc3)nc(N)n3c(=O)n(CCc4nccn4C)nc23)cc(C)n1 [Example 1-2, 5-amino-8-(2,6-dimethyl-4-pyridyl)-2-[2-(1-methylimidazol-2-yl)ethyl]-7-phenyl-[1,2,4]triazolo[4,3-c]pyrimidin-3-one] | 6.1 | 8.2
3 | Cc1cc(-c2c(-c3ccccc3)nc(N)n3c(=O)n(CCc4ncc[nH]4)nc23)cc(C)n1 [Example 1-3, 5-amino-8-(2,6-dimethyl-4-pyridyl)-2-[2-(1H-imidazol-2-yl)ethyl]-7-phenyl-[1,2,4]triazolo[4,3-c]pyrimidin-3-one] | 5.9 | 7.9
4 | Cc1cc(-c2c(-c3ccccc3)nc(N)n3c(=O)n(CCc4nnn[nH]4)nc23)cc(C)n1 [Example 1-4, 5-amino-8-(2,6-dimethyl-4-pyridyl)-7-phenyl-2-[2-(1H-tetrazol-5-yl)ethyl]-[1,2,4]triazolo[4,3-c]pyrimidin-3-one] | <5.4 | 6.4
5 | Cc1cc(-c2c(-c3ccccc3)nc(N)n3c(=O)n(CCc4nnn(C)n4)nc23)cc(C)n1 [Example 1-6, 5-amino-8-(2,6-dimethyl-4-pyridyl)-2-[2-(2-methyltetrazol-5-yl)ethyl]-7-phenyl-[1,2,4]triazolo[4,3-c]pyrimidin-3-one] | 5.7 | 7.2
6 | CCn1nccc1CCn1nc2c(-c3cc(C)nc(C)c3)c(-c3ccccc3)nc(N)n2c1=O [Example 1-7, 5-amino-8-(2,6-dimethyl-4-pyridyl)-2-[2-(2-ethylpyrazol-3-yl)ethyl]-7-phenyl-[1,2,4]triazolo[4,3-c]pyrimidin-3-one] | 6.6 | 8.0
7 | Cc1cc(-c2c(-c3ccccc3)nc(N)n3c(=O)n(C(C)c4cccs4)nc23)cc(C)n1 (stereo not drawn) [Example 1-8, 5-amino-8-(2,6-dimethyl-4-pyridyl)-7-phenyl-2-[1-(2-thienyl)ethyl]-[1,2,4]triazolo[4,3-c]pyrimidin-3-one] | 6.7 | 7.8
8 | Cc1cc(-c2c(-c3ccccc3)nc(N)n3c(=O)n(Cc4ncco4)nc23)cc(C)n1 [Example 1-9, 5-amino-8-(2,6-dimethyl-4-pyridyl)-2-(oxazol-2-ylmethyl)-7-phenyl-[1,2,4]triazolo[4,3-c]pyrimidin-3-one] | 7.0 | 9.1
9 | Cc1cc(-c2c(-c3ccccc3)nc(N)n3c(=O)n(Cc4cocn4)nc23)cc(C)n1 [Example 1-10, 5-amino-8-(2,6-dimethyl-4-pyridyl)-2-(oxazol-4-ylmethyl)-7-phenyl-[1,2,4]triazolo[4,3-c]pyrimidin-3-one] | 6.8 | 9.2
10 | Cc1cc(-c2c(-c3ccccc3)nc(N)n3c(=O)n(Cc4nccn4C)nc23)cc(C)n1 [Example 1-11, 5-amino-8-(2,6-dimethyl-4-pyridyl)-2-[(1-methylimidazol-2-yl)methyl]-7-phenyl-[1,2,4]triazolo[4,3-c]pyrimidin-3-one] | 7.8 | 9.8
11 | Cc1cc(-c2c(-c3ccccc3)nc(N)n3c(=O)n(Cc4ccnn4C)nc23)cc(C)n1 [Example 1-12, 5-amino-8-(2,6-dimethyl-4-pyridyl)-2-[(2-methylpyrazol-3-yl)methyl]-7-phenyl-[1,2,4]triazolo[4,3-c]pyrimidin-3-one] | 7.1 | 9.0
12 | Cc1cc(-c2c(-c3ccccc3)nc(N)n3c(=O)n(Cc4ccon4)nc23)cc(C)n1 [Example 1-13, 5-amino-8-(2,6-dimethyl-4-pyridyl)-2-(isoxazol-3-ylmethyl)-7-phenyl-[1,2,4]triazolo[4,3-c]pyrimidin-3-one] | 6.8 | 8.9
13 | Cc1cc(-c2c(-c3ccccc3)nc(N)n3c(=O)n(Cc4coc(C)n4)nc23)cc(C)n1 [Example 1-15, 5-amino-8-(2,6-dimethyl-4-pyridyl)-2-[(2-methyloxazol-4-yl)methyl]-7-phenyl-[1,2,4]triazolo[4,3-c]pyrimidin-3-one] | 6.7 | 8.9
14 | Cc1cc(-c2c(-c3ccccc3)nc(N)n3c(=O)n(Cc4nnc(C)o4)nc23)cc(C)n1 [Example 1-17, 5-amino-8-(2,6-dimethyl-4-pyridyl)-2-[(5-methyl-1,3,4-oxadiazol-2-yl)methyl]-7-phenyl-[1,2,4]triazolo[4,3-c]pyrimidin-3-one] | 6.2 | 8.2
15 | Cc1cc(-c2c(-c3ccccc3)nc(N)n3c(=O)n(Cc4cncn4C)nc23)cc(C)n1 [Example 1-18, 5-amino-8-(2,6-dimethyl-4-pyridyl)-2-[(3-methylimidazol-4-yl)methyl]-7-phenyl-[1,2,4]triazolo[4,3-c]pyrimidin-3-one] | 6.9 | 8.5
16 | Cc1cc(-c2c(-c3ccccc3)nc(N)n3c(=O)n(Cc4nonc4C)nc23)cc(C)n1 [Example 1-19, 5-amino-8-(2,6-dimethyl-4-pyridyl)-2-[(4-methyl-1,2,5-oxadiazol-3-yl)methyl]-7-phenyl-[1,2,4]triazolo[4,3-c]pyrimidin-3-one] | 7.2 | 9.6
17 | Cc1cc(-c2c(-c3ccccc3)nc(N)n3c(=O)n(Cc4noc(C)n4)nc23)cc(C)n1 [Example 1-20, 5-amino-8-(2,6-dimethyl-4-pyridyl)-2-[(5-methyl-1,2,4-oxadiazol-3-yl)methyl]-7-phenyl-[1,2,4]triazolo[4,3-c]pyrimidin-3-one] | 6.6 | 8.7
18 | Cc1cc(-c2c(-c3ccccc3)nc(N)n3c(=O)n(Cc4cnc[nH]4)nc23)cc(C)n1 [Example 1-23, 5-amino-8-(2,6-dimethyl-4-pyridyl)-2-(1H-imidazol-5-ylmethyl)-7-phenyl-[1,2,4]triazolo[4,3-c]pyrimidin-3-one] | 6.6 | 8.3
19 | Cc1cc(-c2c(-c3ccccc3)nc(N)n3c(=O)n(Cc4ccn[nH]4)nc23)cc(C)n1 [Example 1-25, 5-amino-8-(2,6-dimethyl-4-pyridyl)-7-phenyl-2-(1H-pyrazol-5-ylmethyl)-[1,2,4]triazolo[4,3-c]pyrimidin-3-one] | 7.1 | 8.6
20 | Cc1cc(-c2c(-c3ccccc3)nc(N)n3c(=O)n(Cc4nn[nH]n4)nc23)cc(C)n1 [Example 1-26, 5-amino-8-(2,6-dimethyl-4-pyridyl)-7-phenyl-2-(2H-tetrazol-5-ylmethyl)-[1,2,4]triazolo[4,3-c]pyrimidin-3-one] | <5.4 | 6.4
21 | Cc1cc(-c2c(-c3ccccc3)nc(N)n3c(=O)n(Cc4nnco4)nc23)cc(C)n1 [Example 1-27, 5-amino-8-(2,6-dimethyl-4-pyridyl)-2-(1,3,4-oxadiazol-2-ylmethyl)-7-phenyl-[1,2,4]triazolo[4,3-c]pyrimidin-3-one] | 6.6 | 8.1
22 | Cc1cc(-c2c(-c3ccccc3)nc(N)n3c(=O)n(Cc4nncn4C)nc23)cc(C)n1 [Example 1-28, 5-amino-8-(2,6-dimethyl-4-pyridyl)-2-[(4-methyl-1,2,4-triazol-3-yl)methyl]-7-phenyl-[1,2,4]triazolo[4,3-c]pyrimidin-3-one] | 6.5 | 7.7
23 | Cc1cc(-c2c(-c3ccccc3)nc(N)n3c(=O)n(Cc4nn[nH]c4C)nc23)cc(C)n1 [Example 1-29, 5-amino-8-(2,6-dimethylpyridin-4-yl)-2-((5-methyl-1H-1,2,3-triazol-4-yl)methyl)-7-phenyl-[1,2,4]triazolo[4,3-c]pyrimidin-3(2H)-one] | 7.0 | 8.6
24 | Cc1cc(-c2c(-c3ccccc3)nc(N)n3c(=O)n(Cc4cnn(C)n4)nc23)cc(C)n1 [Example 1-30, 5-amino-8-(2,6-dimethyl-4-pyridyl)-2-[(2-methyltriazol-4-yl)methyl]-7-phenyl-[1,2,4]triazolo[4,3-c]pyrimidin-3-one] | 6.6 | 8.9
25 | Cc1cc(-c2c(-c3ccccc3)nc(N)n3c(=O)n(C[C@@H]4CCCO4)nc23)cc(C)n1 [Example 2-17, 5-amino-8-(2,6-dimethyl-4-pyridyl)-7-phenyl-2-[[(2S)-tetrahydrofuran-2-yl]methyl]-[1,2,4]triazolo[4,3-c]pyrimidin-3-one] |  | 8.6
26 | Cc1cc(-c2c(-c3ccccc3)nc(N)n3c(=O)n(C[C@H]4C[C@@H](O)CN4C)nc23)cc(C)n1 [Example 2-24, 5-amino-8-(2,6-dimethyl-4-pyridyl)-2-[[(2R,4R)-4-hydroxy-1-methyl-pyrrolidin-2-yl]methyl]-7-phenyl-[1,2,4]triazolo[4,3-c]pyrimidin-3-one] |  | 8.8
27 | Cc1cc(-c2c(-c3ccccc3)nc(N)n3c(=O)n(C[C@@H]4C[C@H](O)CN4C)nc23)cc(C)n1 [Example 2-25, 5-amino-8-(2,6-dimethyl-4-pyridyl)-2-[[(2S,4S)-4-hydroxy-1-methyl-pyrrolidin-2-yl]methyl]-7-phenyl-[1,2,4]triazolo[4,3-c]pyrimidin-3-one] |  | 8.8
